# Results as given in US12447159B2 (AELIS FARMA, priority 2018, dated 2025).
# pIC50: −log10 of the molar value. “Also recorded” adds a separate entry of the source. Like-named read-outs stand apart in the source and are kept apart here.
# Tests used:
# OATP1B1 = OATP1B1 (Homo sapiens, UniProt Q9Y6L6); assay: Cellular transporter inhibition, CHO cells (fluorometry); conditions: 10 μM
# Method: (§1) Chinese Hamster Ovary (CHO) were used for all transporters except for P-gp that was studied in Madin-Darby Canine Kidney (MDR1-MDCKII) cells. The inhibition of the activity of each transporter is evaluated by measuring changes in the transport of their specific substrates by fluorometry.
# [1] = Distribution in the brain of rats; format: in vivo; conditions: rat, oral, 1.6 mg/kg, per os
# Method: Distribution of 3pMBP in the brain was studied in mice and rats. In dogs, 3pMBP was also administered intravenously after solubilisation in cyclodextrine.
# [2] = system: human chromosome aberration; assay: Human Chromosome Aberration test +/- metabolic activation (GLP); format: cell-based; conditions: highest concentration tested between 74 and 100 μM
# From the text: […].
# [3] = system: 85 receptors (CEREP High-throughput profile+4 steroid receptors+Cannabinoid type 2 receptor); assay: CEREP High-throughput binding profile (85 receptors)
# From the text: The CEREP High-throughput profile consists of a broad collection of 80 transmembrane and soluble receptors, ion channels and G-Protein coupled receptors.
# conscious rats = assay: Respiration in the unrestrained conscious rat (whole body plethysmography, GLP); conditions: 2, 9 and 36 mg/kg, single oral
# Method: The day prior to the study, animals were only allowed to drink water. On the study day, animals were placed in the plethysmograph and measurements started immediately afterwards. The whole body plethysmography method measure in a closed chamber variations in air flow due to thoracic cage movements during respiration and enables the measurement of respiratory parameters in the conscious animal, totally free to move about. […] Respiration was recorded for a total period of 6 hours following the dosing. Respiratory parameters were determined from analysis of respiratory cycles.
# [4] = system: diet-induced obese (DIO) mouse model; assay: Repeated treatment: food intake and body weight in diet-induced obese (DIO) mice; format: in vivo; conditions: vs vehicle; Rimo 10 mg/kg ip; 3pMBP 0.005-15 mg/kg per os
# [5] = Distribution in the brain of mice; format: in vivo
# [6] = target: T1, human CB1 (hCB1) receptor (Homo sapiens, UniProt P21554); assay: THC-induced increase in MAPK phosphorylation, HEK-293 cells transiently transfected with hCB1 (western blot, P-MAPK/MAPK); format: cell-based; conditions: THC 10 μM, 5 min; HEK-293 transiently expressing the hCB1
# T1 construct: expressed in transfected cells; host or cells: HEK-293
# T1 sequence (P21554 whole entry): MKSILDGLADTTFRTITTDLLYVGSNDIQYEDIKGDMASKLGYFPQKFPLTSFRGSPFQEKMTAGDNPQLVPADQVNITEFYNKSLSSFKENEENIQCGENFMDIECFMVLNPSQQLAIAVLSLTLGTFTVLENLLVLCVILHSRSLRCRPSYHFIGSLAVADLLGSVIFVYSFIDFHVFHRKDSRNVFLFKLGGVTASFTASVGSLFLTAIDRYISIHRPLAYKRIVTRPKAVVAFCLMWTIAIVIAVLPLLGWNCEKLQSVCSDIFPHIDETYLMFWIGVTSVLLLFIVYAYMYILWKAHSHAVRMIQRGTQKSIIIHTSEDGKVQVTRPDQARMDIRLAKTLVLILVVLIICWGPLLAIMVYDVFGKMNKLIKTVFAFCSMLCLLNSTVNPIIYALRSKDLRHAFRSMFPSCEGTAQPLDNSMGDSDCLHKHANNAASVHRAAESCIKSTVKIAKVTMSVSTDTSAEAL
# Method: The difference in the concentrations of THC used in the two experiments is related to the different efficiency of transfection of hCB1 cDNA plasmid, which is stable in Experiment 1 and transient in Experiment 2.
# MAPK phosphorylation (P-Erk1/2MAPK proteins) was measured by western blot. In experiment 1 the mitochondrial marker CoxIV and in experiment 2 the un-phosphorylated MAPK proteins were used as loading controls. The P-MAPK/CoxIV and P-MAPK/MAPK ratios were calculated and the data expressed as % of vehicle-treated cells.
# [7] = system: THC-induced object recognition impairment; assay: THC-induced impairment of long-term memory (object recognition test); conditions: per os 3 h before THC 6 mg/kg ip; mice
# From the text: Ten minutes before THC injection, mice were allowed to explore 2 identical objects in an “L”-shaped maze. The day after, one object was replaced by a novel one. […] The comparison of the time spent exploring the familiar and the novel objects is used as an index of discrimination between familiarity and novelty. Therefore, this parameter is used to evaluate object recognition performances.
# OAT1 = OAT1 (Homo sapiens, UniProt Q4U2R8); assay: Cellular transporter inhibition, CHO cells (fluorometry); conditions: 10 μM
# OAT1, sequence (Q4U2R8 whole entry): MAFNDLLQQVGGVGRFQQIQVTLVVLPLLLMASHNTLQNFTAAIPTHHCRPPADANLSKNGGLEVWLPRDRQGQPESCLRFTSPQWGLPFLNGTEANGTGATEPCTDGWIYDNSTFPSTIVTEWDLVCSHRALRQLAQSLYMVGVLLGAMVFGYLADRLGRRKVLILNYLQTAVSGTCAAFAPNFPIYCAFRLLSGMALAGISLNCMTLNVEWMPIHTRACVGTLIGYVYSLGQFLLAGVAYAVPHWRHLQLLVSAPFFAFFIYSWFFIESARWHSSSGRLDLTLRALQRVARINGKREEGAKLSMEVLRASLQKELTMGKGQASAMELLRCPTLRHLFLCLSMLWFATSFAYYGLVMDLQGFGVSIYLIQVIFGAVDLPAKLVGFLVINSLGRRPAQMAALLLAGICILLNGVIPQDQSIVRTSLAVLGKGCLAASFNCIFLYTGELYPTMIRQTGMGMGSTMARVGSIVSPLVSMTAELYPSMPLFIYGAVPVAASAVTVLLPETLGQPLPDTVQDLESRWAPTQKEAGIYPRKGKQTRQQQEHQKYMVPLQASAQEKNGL
# Method: as §1
# [8] = system: THC-induced conditioned gaping; assay: THC-induced conditioned gaping behavior; format: in vivo; conditions: rats
# Method: Three days after cannulation surgery, rats were adapted to the taste reactivity chamber. Rats were individually placed in a Taste Reaction (TR) chamber with their cannulas attached to an infusion pump to infuse water into their intraoral cavity over a period of 2 min at the rate of 1 ml/min and then returned to their home cage. Rats received the first of three daily conditioning trials three days after the adaptation trial. […] Rats received the pre-treatment drug 3 hours prior to conditioning via feeding tube. They were then placed in the TR chamber and infused with 0.1% saccharin solution for 2 min at a rate of 1 ml/min while orofacial reactions were recorded. Immediately following saccharin infusion, the rats were injected […] with 10 mg/kg THC or VEH and returned to their home cage. Twenty-four hour later, the rats underwent a drug free test trial where they were placed in the TR chamber and infused with 0.1% saccharin solution for 2 min at a rate of 1 ml/min and orofacial reactions were recorded.
# P-gp = P-gp (Homo sapiens, UniProt P08183); assay: Cellular transporter inhibition, MDR1-MDCKII cells (fluorometry); conditions: 10 μM
# P-gp, sequence (P08183 whole entry): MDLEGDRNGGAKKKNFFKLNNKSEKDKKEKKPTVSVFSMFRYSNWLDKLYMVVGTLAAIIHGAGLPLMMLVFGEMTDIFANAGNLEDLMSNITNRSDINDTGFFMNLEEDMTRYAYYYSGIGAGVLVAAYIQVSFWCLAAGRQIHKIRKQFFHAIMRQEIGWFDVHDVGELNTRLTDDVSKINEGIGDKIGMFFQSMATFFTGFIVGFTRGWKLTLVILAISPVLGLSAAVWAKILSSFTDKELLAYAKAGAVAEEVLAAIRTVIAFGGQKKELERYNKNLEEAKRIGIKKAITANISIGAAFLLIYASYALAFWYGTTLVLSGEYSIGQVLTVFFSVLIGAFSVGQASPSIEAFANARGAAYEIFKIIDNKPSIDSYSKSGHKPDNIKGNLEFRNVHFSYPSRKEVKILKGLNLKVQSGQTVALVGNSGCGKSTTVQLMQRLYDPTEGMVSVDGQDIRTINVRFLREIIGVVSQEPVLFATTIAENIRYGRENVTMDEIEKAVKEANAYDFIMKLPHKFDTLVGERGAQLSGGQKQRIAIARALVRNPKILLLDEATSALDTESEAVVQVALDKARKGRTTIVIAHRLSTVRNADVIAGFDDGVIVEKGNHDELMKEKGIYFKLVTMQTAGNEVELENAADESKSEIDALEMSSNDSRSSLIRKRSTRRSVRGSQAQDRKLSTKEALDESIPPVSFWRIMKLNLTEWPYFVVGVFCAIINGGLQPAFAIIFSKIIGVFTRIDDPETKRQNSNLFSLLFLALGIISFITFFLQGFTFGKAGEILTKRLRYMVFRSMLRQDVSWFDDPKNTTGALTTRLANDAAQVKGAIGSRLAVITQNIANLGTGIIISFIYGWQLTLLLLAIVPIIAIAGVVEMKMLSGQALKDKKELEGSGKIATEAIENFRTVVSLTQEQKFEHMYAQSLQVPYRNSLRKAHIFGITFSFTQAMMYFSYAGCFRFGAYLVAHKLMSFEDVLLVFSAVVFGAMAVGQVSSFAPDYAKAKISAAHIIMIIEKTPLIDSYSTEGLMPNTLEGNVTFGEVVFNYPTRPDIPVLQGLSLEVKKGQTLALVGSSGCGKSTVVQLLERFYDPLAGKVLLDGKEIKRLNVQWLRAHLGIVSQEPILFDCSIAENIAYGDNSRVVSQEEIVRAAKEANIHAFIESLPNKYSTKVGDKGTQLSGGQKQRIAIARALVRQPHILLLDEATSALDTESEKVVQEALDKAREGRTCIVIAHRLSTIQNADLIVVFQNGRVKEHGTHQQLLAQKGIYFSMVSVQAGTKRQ
# Method: as §1
# male Wistar rats = assay: Irwin test and body temperature in rats (GLP); format: in vivo; conditions: 2, 9 and 36 mg/kg, single oral
# Method: The study involved 4 groups of 6 male Wistar rats weighing between 154.0 and 185.9 g.
# On study day, animals were firstly scored by the Irwin standardized observation battery and the body temperature was measured. […] Then the Irwin scores as well as measurement of body temperature were performed again at 1, 3, 6, 8 and 24 hours after the administration.
# [9] = system: diet-induced obese (DIO) mouse model; assay: Repeated treatment: food intake and body weight in diet-induced obese (DIO) mice; format: in vivo
# Method: Male C57BL/6J mice were fed ad libitum with a high-fat diet (HFD) for 8 weeks before the start of the pharmacological treatments. During pharmacological treatments, the HFD was maintained and food intake and body weight were measured daily. The food consumed was calculated by subtracting the food left in the hoppers from the initial pre-weighted amount. […] 3pMBP and rimonabant were administered by oral gavage once a day, two hours before the start of the dark phase of the light/dark cycle.
# [10] = system: testosterone, DHEA and allopregnanolone; assay: Conversion in downstream steroids, rats (GC/MS-MS); format: in vivo; conditions: male and female rats; acute or repeated (28 days) 2, 9 and 36 mg/kg
# Method: In all these studies plasma concentrations of steroids were measured by gas chromatography-tandem mass spectrometry (GC/MS-MS).
# in vitro = in vitro ADME, monkeys; conditions: monkey
# THC-induced catalepsy = THC-induced catalepsy (catalepsy bar test); format: in vivo; conditions: per os 3 h before THC 10 mg/kg; mice
# Method: Measuring of the catalepsy induced by THC was started 30 min after THC injection.
# Catalepsy was measured by the catalepsy bar test. The forepaws of mice were placed on a bar fixed horizontally at 3.5 cm from the bench surface. The latency for moving from the bar was recorded with a cut-off time fixed at 420 s (7 min). Each mouse was submitted to a maximum of four consecutive trials. The maximum latency shown at one trial was selected as the measure of catalepsy.
# CYP 2B6 = CYP 2B6 (Homo sapiens, UniProt P20813); assay: CYP inhibition in human liver microsomes; conditions: 10 μM
# CYP 2B6, sequence (P20813 whole entry): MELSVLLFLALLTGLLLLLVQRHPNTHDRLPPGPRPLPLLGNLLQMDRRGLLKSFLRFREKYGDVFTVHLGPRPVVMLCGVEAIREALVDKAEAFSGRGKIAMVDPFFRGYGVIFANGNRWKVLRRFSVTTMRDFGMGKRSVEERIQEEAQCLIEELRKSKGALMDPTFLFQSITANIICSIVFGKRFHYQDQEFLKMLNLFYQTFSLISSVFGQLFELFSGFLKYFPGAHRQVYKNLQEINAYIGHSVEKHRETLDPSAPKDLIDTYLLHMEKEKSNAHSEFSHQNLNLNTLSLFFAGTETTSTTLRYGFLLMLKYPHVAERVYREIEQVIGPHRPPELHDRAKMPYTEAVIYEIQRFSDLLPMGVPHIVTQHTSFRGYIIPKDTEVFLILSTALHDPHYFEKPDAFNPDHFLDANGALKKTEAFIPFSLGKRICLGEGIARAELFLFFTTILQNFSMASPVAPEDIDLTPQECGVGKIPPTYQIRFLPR
# From the text: Reaction was initiated by adding NADPH-generating compounds and after stopping of reaction and samples treatment; HPLC-UV/VIS and HPLC-MS/MS detection were used for detection of peak areas corresponding to the metabolite of each substrate.
# [11] = Pharmacokinetics in plasma of dogs (LC/MS-MS); format: in vivo; conditions: for T1/2: manual linear regression on the last three points
# [12] = 3 h prior to conditioning with THC 10 mg/kg
# OATP1B1, sequence (Q9Y6L6 whole entry): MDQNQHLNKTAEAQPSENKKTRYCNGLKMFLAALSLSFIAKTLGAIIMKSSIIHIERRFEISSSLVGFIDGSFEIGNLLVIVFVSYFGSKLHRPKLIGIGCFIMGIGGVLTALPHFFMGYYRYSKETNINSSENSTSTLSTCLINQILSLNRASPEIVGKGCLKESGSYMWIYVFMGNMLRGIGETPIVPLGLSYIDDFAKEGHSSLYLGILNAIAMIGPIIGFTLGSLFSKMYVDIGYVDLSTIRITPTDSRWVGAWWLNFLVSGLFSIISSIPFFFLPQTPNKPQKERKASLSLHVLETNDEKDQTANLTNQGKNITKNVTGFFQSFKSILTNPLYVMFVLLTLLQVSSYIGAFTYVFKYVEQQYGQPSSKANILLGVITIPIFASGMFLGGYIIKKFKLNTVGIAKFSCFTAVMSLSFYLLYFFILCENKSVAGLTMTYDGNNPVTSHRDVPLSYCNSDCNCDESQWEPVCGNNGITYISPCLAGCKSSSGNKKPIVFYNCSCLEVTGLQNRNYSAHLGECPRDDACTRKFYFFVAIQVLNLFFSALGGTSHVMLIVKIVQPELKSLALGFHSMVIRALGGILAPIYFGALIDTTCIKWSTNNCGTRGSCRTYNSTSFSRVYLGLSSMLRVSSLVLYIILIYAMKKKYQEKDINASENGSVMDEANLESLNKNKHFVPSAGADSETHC
smiles,measurement,setting,value
"COc1ccc(CO[C@H]2CC[C@@]3(C)C(=CC[C@H]4[C@@H]5CC[C@H](C(C)=O)[C@@]5(C)CC[C@@H]43)C2)cc1 [3pMBP, 3β-(4-methoxybenzyloxy)pregn-5-en-20-one]",Activity of OATP1B1,OATP1B1,did not modify the activity
same,Tmax,[1],7 h
same,Genotoxicity,[2],"did not show any cytotoxicity, genotoxicity and mutagenesis"
same,Modification of ligand binding,[3]; 10 μM,did not modify the binding of any of the 85 receptors; also recorded: did not modify the binding of these receptors or of any of the other receptors
same,pIC50,"[3]; receptor binding, 85 receptors, read-out: ID50 (the source's name)",< 5.00
same,Respiration,conscious rats,did not modify
same,Body weight in obese mice,[4],"but not 3pMBP (0.005, 0.015, 0.05, 5 and 15 mg/kg; per os), decreases body weight"
same,AUC in the brain vs plasma,"[5]; conclusion sentence, species and dose not stated",four times higher AUC in the brain than in the plasma
same,tmax in the brain,"[5]; mice, per os",7 h
same,% inhibition,[6],100%
same,ID100,[6],100 nM
same,% inhibition,[7],100%
same,ID50,[7],<5 µg/kg
same,Activity of OAT1,OAT1,did not modify the activity
same,Establishment of conditioned gaping (mean number of gaping reactions),"[8]; 0.005 and […], THC 10 mg/kg",interfered the establishment of conditioned gaping by reducing the mean number of gaping reactions
same,% inhibition,[8]; [12],50%
same,ID50,[8]; [12],<5 µg/kg
same,Activity of P-gp,P-gp,did not modify the activity
same,Behavior (Irwin test) and body temperature,male Wistar rats,did not modify
same,Inhibition of food-intake and body weight (repeated administration): Effect (3pMBP),"[9]; male mice, highest dose tested 15 mg/kg",at none of the dose tested did modify food intake or body weight and No
same,Food intake in obese mice,"[9]; vs vehicle, Rimo 10 mg/kg ip, 3pMBP 0.005-15 mg/kg per os","but not 3pMBP (0.005, 0.015, 0.05, 5 and 15 mg/kg; per os), decreases food intake"
same,"Plasma concentrations of testosterone, DHEA and allopregnanolone",[10],no effect
same,fraction unbound,in vitro,0.01 to 0.03
same,% inhibition,THC-induced catalepsy,50%
same,ID50,THC-induced catalepsy,5 µg/kg
same,ID100,THC-induced catalepsy,50 µg/kg
same,Inhibition of CYP 2B6 activity,CYP 2B6,no significant inhibition
same,bioavailability,[11],68%
same,bioavailability,"[11]; both sexes, dog, plasma, oral, 0.7 mg/kg, read-out: bioavailability",~68%
same,Tmax,"[11]; both sexes, dog, po, per os, 0.7 mg/kg, plasma, read-out: Tmax",~3 h
same,AUClast,"[11]; iv, 0.7 mg/kg, plasma",2192 ng·h/mL
same,Cmax,"[11]; iv, 0.7 mg/kg, plasma",505 ng/mL
same,Tmax,"[11]; iv, 0.7 mg/kg, plasma",0.125 h
same,T1/2,"[11]; iv, 0.7 mg/kg, plasma",35.9 h
same,AUClast,"[11]; per os, 0.7 mg/kg, plasma",1452.5 ng·h/mL
same,Cmax,"[11]; per os, 0.7 mg/kg, plasma",137.7 ng/mL
same,Tmax,"[11]; per os, 0.7 mg/kg, plasma",2.67 h
same,T1/2,"[11]; per os, 0.7 mg/kg, plasma",28.0 h
